In publication PMC9031804, “The Peptide-Drug Conjugate TH1902: A New Sortilin Receptor-Mediated Cancer Therapeutic against Ovarian and Endometrial Cancers” (Cancers, 2022):

What was measured:
[1] = ref [38]; cited from earlier work
Source text: Taxanes, mainly paclitaxel and docetaxel, are well-known microtubule stabilizers used in various cancer including ovarian and endometrial cancer first-line therapies in the last thirty years. […] Here, the new chemical entity TH1902 is distinct from the docetaxel molecule as it selectively exploits SORT1’s internalization properties to trigger cell apoptosis in ES-2 and ...

[2] = tested on: A2780 ovarian cancer xenografts; assay: A2780 ovarian cancer xenograft tumor growth; format: in vivo, human tumor in female athymic nude mice; details: single agent 10 mg/kg IV bi-weekly
Source text: Animals were obtained from Charles River Laboratories, Inc. and allowed to acclimate for 5 days before experiments. Female CD-1 nude mice (Crl:CD1-Foxn1^nu, 4–6 weeks old; ES-2) or athymic nude mice (Crl:NU(NCr)-Foxn1^nu, 4–6 weeks old; SKOV3, A2780, AN3-CA) were used for the xenograft tumor models. Mice were maintained in a pathogen-free environment and handled in accordance with the Guidelines of the Canadian Council on Animal Care. Animal protocols were approved by the Institutional Animal Care and Use Committee of Université du Québec à Montréal (0620-C1R1-897-0621).
Tumor xenografts were established by subcutaneous inoculation of 5 × 10^6 cells (ES-2) or 7 × 10^6 cells (SKOV3) in 150 µL of HBSS; other xenografts were established by subcutaneous inoculation of 5 × 10^6 cells (A2780) or 2 × 10^6 cells (AN3-CA) in 150 µL of HBSS/Matrigel (50:50). All cells were injected into the right flanks of immunodeficient mice under light isoflurane anesthesia. The injection schedules and doses of injected substances are detailed in the figures. Briefly, when palpable ES-2, SKOV3 or AN3-CA tumors reached a volume of ~100 mm^3, mice were treated weekly with either vehicle, docetaxel (3.75 or 15 mg/kg) or TH1902 (8.75 or 35 mg/kg) at equivalent docetaxel amounts via intravenous (IV) tail vein injection. Note that three cycles of 15 mg/kg docetaxel is the maximum tolerated dose in mice and that 35 mg/kg TH1902 contains the same quantity of docetaxel (bis-linked to the peptide). In A2780 xenografts, when palpable tumors reached a volume of ~250 mm^3, mice were treated with either vehicle, paclitaxel (10 mg/kg, IV), carboplatin (40 mg/kg, intraperitoneal (IP)), docetaxel (10 mg/kg, IV) or TH1902 (23 mg/kg, IV) bi-weekly as single agents or once on Day-0 as combinations with carboplatin. For combination treatments, both taxanes and TH1902 were injected 1 h following carboplatin administrations at the doses previously described. Injectable solutions were prepared as follows: TH1902 was solubilized at 10 mg/mL in 10% Tween-80 in D5W (pH 4.3, w/v) then further diluted with D5W; docetaxel was solubilized at 25 mg/mL in ethanol and Tween-80 (50/50, v/v) then further diluted with D5W; paclitaxel was solubilized at 25 mg/mL in ethanol and Cremophor EL (50/50, v/v) then further diluted in saline; carboplatin was solubilized at 50 mg/mL in water then further diluted in a solution of 30% PEG400 and 5% Tween-80 in D5W (w/v); vehicle composition and preparation mimicked highest dose of TH1902 preparation. Tumor growth was monitored by two-dimensional measurements taken with an electronic caliper and tumor volume was calculated according to the following formula: tumor volume (mm^3) = π/6 × length × width^2. Data are expressed as mean ± SEM and were analyzed using GraphPad Prism software.
Figure 8 Effects of TH1902 and carboplatin combinations on A2780 ovarian cancer xenografts. A2780 cells were subcutaneously implanted in the flanks of athymic nude mice. Tumor volume measurements following bi-weekly administrations of (A) vehicle, docetaxel, TH1902, paclitaxel or carboplatin as single agents, or (B) administered once in combination using the same dosage as described in the methods section. Colored dots below indicate drug treatments for all groups. Data are represented as mean ± SEM (n = 5 mice/group).

[3] = tested on: SORT1 in ES-2 ovarian cancer cells; assay: Competition of TH19P01-Alexa^488 uptake, ES-2; format: cell-based, human; details: 10 µM neurotensin, 2 h, n = 4
Method: (§1) Cells were grown in 12-well plates in complete media for 24 h. Where required, cells were transiently transfected with 100 nM of siRNA (either a scrambled, control siRNA, or one that was directed against a particular mRNA) for 24 h using Lipofectamine 2000. Cells were next washed with PBS and then incubated in HBSS without phenol red for 2 h at 37 °C in the presence or absence of 200 nM Alexa^488-labeled TH19P01 peptide. Alexa^488-labeled TH19P01 peptide uptake was also measured with or without competition by an excess of unlabeled TH19P01 peptide (50 µM) or neurotensin (10 µM) during a 2 h uptake before washing with serum-free media. Cell fluorescence was evaluated in the FL1 channel using a C6 Accuri flow cytometer (BD Biosciences, Mississauga, ON, Canada).
(§2) Figure 4 Internalization of TH19P01-Alexa^488 peptide by SORT1 in ovarian cancer cell lines. […] (B) Uptake of TH19P01-Alexa^488 into two ovarian cancer cell lines was measured in the presence of excess concentrations of substrates known to bind to SORT1 (50 µM TH19P01 and 10 µM neurotensin). […] Results are expressed as normalized RFU according to measurements of control wells. […]

[4] = tested on: SORT1 in SKOV3 ovarian cancer cells; assay: Competition of TH19P01-Alexa^488 uptake, SKOV3; format: cell-based, human; details: 10 µM neurotensin, 2 h, n = 4
Method: as §1, §2

Compound | Water solubility [1] | Tumor growth inhibition [2] | Tumor progression, Size Increase (x-Fold Day-0) ([2]; vehicle group endpoint, n = 5 mice/group) | TH19P01-Alexa^488 uptake with neurotensin [3] | TH19P01-Alexa^488 uptake with neurotensin [4]
CC(=O)O[C@H]1C(=O)[C@@]2(C)[C@H]([C@H](OC(=O)c3ccccc3)[C@]3(O)C[C@H](OC(=O)[C@H](O)[C@@H](NC(=O)c4ccccc4)c4ccccc4)C(C)=C1C3(C)C)[C@]1(OC(C)=O)CO[C@@H]1C[C@@H]2O [Paclitaxel, paclitaxel] | very poor water solubility | 36% | 4.21 x-Fold Day-0 |  | 
neurotensin: known ligand of SORT1, synthesized in-house |  |  |  | reduced | reduced
